Data as given in patent publication US20250115669A1, “FGFR1/KLB Targeting Agonistic Antigen-Binding Proteins and Conjugates Thereof with GLP-1R Agonistic Peptides” (SANOFI, priority 2020, published 2025).

Test: SAR16 (16H7) standalone and in combination with dulaglutide in DIO NASH cynomolgus monkeys
Assay type: in vivo, Cynomolgus monkey (Macaca fascicularis)
Description: Both were tested as single administration and in combination of both in the most relevant animal model that reflects the intended human population. Thus, the pharmacokinetic and pharmacodynamics of varying doses of the compounds were explored in the high-fat diet-induced obese and insulin resistance cynomolgus monkey model with diagnosed non-alcoholic steatohepatitis (NASH), mimicking the adult human NASH insulin resistance phenotype.
Cynomolgus monkey (Macaca fascicularis) was selected as the test species of choice for more meaningful results that were translatable to humans. More than 50 male monkeys were trained to identify 40 HFD induced obese NASH monkeys for the study.
There was a run-in period during which monkeys were injected subcutaneously with vehicle every third day. Food intake (calculated as TEI) and water intake were measured daily along with twice-weekly body weight evaluation and baseline value determination for metabolic biomarkers, safety biomarkers, IV glucose tolerance test (IVGTT), liver biopsy for gene expression analysis, and profile for glucose, insulin, and plasma lipids.
For the dosing period 40 trained monkeys (n=10 per group) were selected and stratified for body weight, fasting plasma glucose (FPG), and fasting plasma insulin (FPI) and insulin response from baseline during the IVGTT. All treatments were administered subcutaneously for […]. The dosing period was designed as a four-arm, dose-ramping study, and monkeys were treated with either vehicle, SAR10, SAR16, or a combination of both SAR10 and SAR16.
(§1) The SAR10-treated monkeys were dosed every 3rd day at 60 μg/kg initiated by dose ramping (3 dose steps, week 1: 20 μg/kg, week 2: 40 μg/kg, week 3 to runout: 60 μg/kg). The SAR16-treated monkeys were dosed at 1 mg/kg on day +1, 3 mg/kg on day +16, and then repeat maintenance dose of 3 mg/kg on day +46. The Combo-treated monkey were dosed with both SAR10 and SAR16 as the same pattern of the SAR10 and SAR16 treated monkeys.
Other parameters were also measured during the study, including food intake, body fat, plasma ketone bodies, as well as blood glucose control (glucose profile, fed, fasting plasma glucose and during ivGTT). One group received the vehicle. The compounds were administered subcutaneously (SC) (12 weeks “evaluation phase” plus run-out) to obese and NASH male cynomolgus macaques (Macaca fascicularis).
as §1, with “at” for “as”

[1] = compared to the vehicle treated group
[2] = day +76 compared to baseline (day −27)

## 16H7: anti FGFR1c/KLB monoclonal antibody of WO 2011/071783, IgG2 backbone; HC SEQ ID NO: 1, LC SEQ ID NO: 2 [Ab 16H7]
DIO NASH cynomolgus monkeys
  body weight (in words): Significant reductions in body weight
  food intake: Reduction of food intake
[1]
  fasting glucose and fed glucose levels (12:30 and 18:30): No significant change
  ivGTT glucose AUC: significantly decreased
[2]
  blood glucose levels, plasma profile: appreciable decreases
  insulin, plasma profile: decreased
Day +76 versus day −27
  HDL levels, plasma profile: slightly increased
  T-ketones levels, plasma profile: increased T-ketones levels
  TC and LDL levels, plasma profile: quite stable
  TG values, plasma profile: lower TG values
Measured on days +81/+82/+83/+84, DIO NASH cynomolgus monkeys
  liver fat fraction change (MRI): −30.0%
More monkeys improved compared to vehicle treated group
  NASH steatosis score: improved steatosis score
